Square brackets hold non-standard residues; d marks the D form. Peptide text beside a SMILES is read from it. * marks the point of attachment. NMeVal(N-(CH2)3COOH) = CC(C)[C@@H](C(=O)*)N(C)CCCC(=O)O; Dolaproine = CO[C@@H]([C@@H]1CCCN1)[C@@H](C)C(=O)O; Dil = CC[C@H](C)[C@H](NC)[C@@H](CC(=O)O)OC; X3 = CC(C)[C@@H](C(=O)*)N(C)CCCCCC(=O)O; Morpholide = C1CN(*)CCO1; X2 = c1ccc2c(CO*)cccc2c1; X1 = O=C(NN*)c1ccccc1; NHBn = c1ccc(CN*)cc1; OBn = c1ccc(CO*)cc1

Broadly, the IC50 is the concentration at which inhibition is half-maximal. For orientation: Papp B→A means how fast a substance crosses the layer from the basolateral side.

The subject of one series is HT-29 wt cell line. The series is described as follows: Anti-proliferative effect on HT-29 wt cell line (MTT assay). The series is classed as cell-based, human. The settings on record: Homo sapiens, HT-29 wt cells, incubation 48 to 96 hours, medium with 10% FCS. The procedure: B-2. Determination of Anti-proliferative Effects of HT-29 wt Cell Line:
After 18 hours the seed medium was replaced by a fresh medium with 10% FCS. The treatment started with measuring out the respective test substance. The dose-response curves were determined of the investigative substances with a concentration of 10^−5 M to 10^−14 M (1:10 dilutions). Incubation times of between 48 hours and 96 hours were chosen. The proliferation was detected by means of the MTT assay (ATCC, Manassas, Va., USA, catalogue no. 30-1010K). After completion of selected incubation period the MTT reagent was incubated with the cells for 4 hours before lysis occurred over night by measuring out the detergent. The created stain was detected at 570 nm. The proliferation of the cells, which were treated identically to the other cells but without the test substance, was defined as the 100% value. The data obtained from this test represent triple determinations and at least two experiments had been carried out independently of each other.
(In general: Tetrazolium assays rely on reduction of a dye to a coloured formazan, in cell work by metabolically active cells.)

Series [1] is described as follows: Cell permeability, flux assay using Caco-2 cells. The series is classed as in vitro ADME. The settings on record: human, basal to apical, 2 hours incubation. As for the experimental part: B-5. Determination of Cell Permeability:
The cell permeability of a substance can be analyzed by means of in vitro tests in a flux assay using Caco-2-cells [M. D. Troutman and D. R. Thakker, Pharm. Res. 20 (8), 1210-1224 (2003)]. For this analysis the cells were cultured on 24 membrane filter plates for 15 to 16 days. In order to determine permeation the test substance in question was given either apical (A) to a HEPES buffer or basal (B) on the cells and incubated for 2 hours. The samples were withdrawn after 0 and 2 hours from the cis and trans compartments. The samples were separated by means of HPLC (Agilent 1200, Böblingen, Germany) using reverse-phase columns. The HPLC system was coupled to a triple quadropol mass spectrometer API 4000 (Applied Biosystems Applera, Darmstadt, Germany) via a turbo ion spray. The permeability was evaluated by means of the Papp value which was calculated with the help of the formula published by Schwab et al. [D. Schwab et al., J. Med. Chem. 46, 1716-1725 (2003)]. A substance was classified as active if the ratio of Papp (B-a) to Papp (A-B) was >2 or <0.5.
The permeability from B to A [Papp^(B-A)] is particularly important for toxophores which are being released intracellular: The lower the permeability the longer the residence time of the substance in the cell after intracellular release and, consequently, the more time available for interaction with the biochemical target (here: tubulin).
Background: Caco-2 cells form a polarised layer with tight junctions and transporters.

Series [2] concerns human renal carcinoma cell line 786-0. The series is described as follows: Anti-proliferative effect on renal cell carcinoma 786-0 cell line (MTT assay). Type of series: cell-based. The note with it: Homo sapiens, 786-0 cells, incubation 48 to 96 hours, serum free medium or 2% FCS. The procedure: B-1. Determination of Anti-proliferative Effects of Renal Cell Carcinoma 786-0 Cell Line:
A defined number of cells of the human renal carcinoma cell line 786-0 were cultured in a 96 well micro titer plate in rich medium (2500 or 7.000 cells/well) and then incubated over night at 37° C./5% CO2. After 18 hours the seed medium was replaced by a serum free medium or medium with 2% FCS. The treatment began with measuring out the respective test substances in varying concentrations (10^−5 M to 10^−14 M). Incubation times of between 48 hours and 96 hours were chosen. The proliferation was determined by means of the MTT assay (ATCC, Manassas, Va., USA, catalogue no. 30-1010K). After completion of incubation period the MTT reagent was incubated with the cells for 4 hours before lysis occurred over night by measuring out the detergent. The created stain was detected at 570 nm. The proliferation of the cells, which were treated identically to the other cells but without the test substance was defined as the 100% value. The data obtained from this test represent triple determinations and at least two experiments had been carried out independently of each other.

As for `CC[C@H](C)[C@@H]([C@@H](CC(=O)N1CCC[C@H]1[C@H](OC)[C@@H](C)C(=O)N[C@@H](Cc1ccccc1)C(N)=O)OC)N(C)C(=O)[C@@H](NC(=O)[C@H](C(C)C)N(C)CCCC(=O)O)C(C)C` [Example 13, N-(3-carboxypropyl)-N-methyl-L-valyl-N-[(3R,4S,5S)-1-{(2S)-2-[(1R,2R)-3-{[(2S)-1-amino-1-oxo-3-phenylpropan-2-yl]amino}-1-methoxy-2-methyl-3-oxopropyl]pyrrolidin-1-yl}-3-methoxy-5-methyl-1-oxoheptan-4-yl]-N-methyl-L-valinamide] ({NMeVal(N-(CH2)3COOH)}-V[Dil][Dolaproine]F-NH2), the results for the IC50 (in the series on HT-29 wt cell line; in series [2]) were 1 nM and 12.5 nM, respectively. The compound also came in with a Papp B→A at 2 h in series [1] of 1 ×10⁻⁶ cm/s.
For `CC[C@H](C)[C@@H]([C@@H](CC(=O)N1CCC[C@H]1[C@H](OC)[C@@H](C)C(=O)N[C@@H](Cc1c[nH]c2ccccc12)C(=O)OCc1ccccc1)OC)N(C)C(=O)[C@@H](NC(=O)[C@H](C(C)C)N(C)CCCC(=O)O)C(C)C` [Example 8, N-(3-carboxypropyl)-N-methyl-L-valyl-N-[(3R,4S,5S)-1-{(2S)-2-[(1R,2R)-3-{[(2S)-1-(benzyloxy)-3-(1H-indol-3-yl)-1-oxopropane-2-yl]amino}-1-methoxy-2-methyl-3-oxopropyl]pyrrolidin-1-yl}-3-methoxy-5-methyl-1-oxoheptan-4-yl]-N-methyl-L-valinamide] ({NMeVal(N-(CH2)3COOH)}-V[Dil][Dolaproine]W-OBn), the IC50 in the series with HT-29 wt cell line was 0.5 nM; in series [2] it was 5.2 nM. This compound also had a Papp B→A at 2 h in series [1] of 2.2 ×10⁻⁶ cm/s.
In the case of `CC[C@H](C)[C@@H]([C@@H](CC(=O)N1CCC[C@H]1[C@H](OC)[C@@H](C)C(=O)N[C@@H](Cc1ccccc1)C(=O)N1CCOCC1)OC)N(C)C(=O)[C@@H](NC(=O)[C@H](C(C)C)N(C)CCCC(=O)O)C(C)C` [Example 23, N-(3-carboxypropyl)-N-methyl-L-valyl-N-[(3R,4S,5S)-3-methoxy-1-{(2S)-2-[(1R,2R)-1-methoxy-2-methyl-3-{[(2S)-1-(morpholin-4-yl)-1-oxo-3-phenylpropane-2-yl]amino}-3-oxopropyl]pyrrolidin-1-yl}-5-methyl-1-oxoheptan-4-yl]-N-methyl-L-valinamide] ({NMeVal(N-(CH2)3COOH)}-V[Dil][Dolaproine]F-Morpholide), the Papp B→A at 2 h in series [1] is 0.2 ×10⁻⁶ cm/s.
`CC[C@H](C)[C@@H]([C@@H](CC(=O)N1CCC[C@H]1[C@H](OC)[C@@H](C)C(=O)N[C@@H](Cc1ccccc1)C(=O)NNC(=O)c1ccccc1)OC)N(C)C(=O)[C@@H](NC(=O)[C@H](C(C)C)N(C)CCCC(=O)O)C(C)C` [Example 14, (3R,4S,7S,10S)-3-(2-{(2S)-2-[(1R,2R)-3-{[(2S)-1-(2-benzoylhydrazino)-1-oxo-3-phenylpropane-2yl]amino}-1-methoxy-2-methyl-3-oxopropyl]pyrrolidin-1-yl}-2-oxoethyl)-4-[(2S)-butane-2-yl]-7,10-diisopropyl-5,11-dimethyl-6,9-dioxo-2-oxa-5,8,11-triazapentadecan-15-acid] ({NMeVal(N-(CH2)3COOH)}-V[Dil][Dolaproine]F-X1): in series [1], the Papp B→A at 2 h stood at 0.3 ×10⁻⁶ cm/s. In series [2], this compound displayed an IC50 of 59 nM.
`CC[C@H](C)[C@@H]([C@@H](CC(=O)N1CCC[C@H]1[C@H](OC)[C@@H](C)C(=O)N[C@@H](Cc1ccccc1)C(=O)OC)OC)N(C)C(=O)[C@@H](NC(=O)[C@H](C(C)C)N(C)CCCC(=O)O)C(C)C` [Example 7] ({NMeVal(N-(CH2)3COOH)}-V[Dil][Dolaproine]F-OMe) registered a Papp B→A at 2 h in series [1] of 1.8 ×10⁻⁶ cm/s.
In series [1], `CCOC(=O)[C@]1(NC(=O)[C@H](C)[C@@H](OC)[C@@H]2CCCN2C(=O)C[C@@H](OC)[C@H]([C@@H](C)CC)N(C)C(=O)[C@@H](NC(=O)[C@H](C(C)C)N(C)CCCC(=O)O)C(C)C)C[C@@H]1c1ccccc1` [Example 12, N-(3-carboxypropyl)-N-methyl-L-valyl-N-[(3R,4S,5S)-1-{(2S)-2-[(1R,2R)-3-{[(1S,2R)-1-(ethoxycarbonyl)-2-phenylcyclopropyl]amino}-1-methoxy-2-methyl-3-oxopropyl]pyrrolidin-1-yl}-3-methoxy-5-methyl-1-oxoheptan-4-yl]-N-methyl-L-valinamide] yielded a Papp B→A at 2 h of 1.5 ×10⁻⁶ cm/s. It took 13 nM to reach half-maximal inhibition in series [2] (IC50).
For `CC[C@H](C)[C@@H]([C@@H](CC(=O)N1CCC[C@H]1[C@H](OC)[C@@H](C)C(=O)N[C@@H](Cc1c[nH]c2ccccc12)C(=O)NCc1ccccc1)OC)N(C)C(=O)[C@@H](NC(=O)[C@H](C(C)C)N(C)CCCC(=O)O)C(C)C` [Example 16, N-(3-carboxypropyl)-N-methyl-L-valyl-N-[(3R,4S,5S)-1-{(2S)-2-[(1R,2R)-3-{[(2S)-1-(benzyl-amino)-3-(1H-indol-3-yl)-1-oxopropane-2-yl]amino}-1-methoxy-2-methyl-3-oxopropyl]pyrrolidin-1-yl}-3-methoxy-5-methyl-1-oxoheptan-4-yl]-N-methyl-L-valinamide] ({NMeVal(N-(CH2)3COOH)}-V[Dil][Dolaproine]W-NHBn), the IC50 stood at 0.1 nM in the series with HT-29 wt cell line and 12 nM in series [2].
`CC[C@H](C)[C@@H]([C@@H](CC(=O)N1CCC[C@H]1[C@H](OC)[C@@H](C)C(=O)N[C@@H](Cc1c[nH]c2ccccc12)C(N)=O)OC)N(C)C(=O)[C@@H](NC(=O)[C@H](C(C)C)N(C)CCCCCC(=O)O)C(C)C` [Example 19] (X3-V[Dil][Dolaproine]W-NH2) showed a Papp B→A at 2 h in series [1] of 0.2 ×10⁻⁶ cm/s.
On to `CC[C@H](C)[C@@H]([C@@H](CC(=O)N1CCC[C@H]1[C@H](OC)[C@@H](C)C(=O)N[C@@H](Cc1ccccc1)C(=O)OCc1cccc2ccccc12)OC)N(C)C(=O)[C@@H](NC(=O)[C@H](C(C)C)N(C)CCCC(=O)O)C(C)C` [Example 1, N-(3-carboxypropyl)-N-methyl-L-valyl-N-[(3R,4S,5S)-3-methoxy-1-{(2S)-2-[(1R,2R)-1-methoxy-2-methyl-3-{[(2S)-1-(1-naphthylmethoxy)-1-oxo-3-phenylpropane-2-yl]amino}-3-oxopropyl]pyrrolidin-1-yl}-5-methyl-1-oxoheptan-4-yl]-N-methyl-L-valinamide] ({NMeVal(N-(CH2)3COOH)}-V[Dil][Dolaproine]F-X2), for which the IC50 stood at 0.1 nM with HT-29 wt cell line and 1.1 nM in series [2].
In turn, `CC[C@H](C)[C@@H]([C@@H](CC(=O)N1CCC[C@H]1[C@H](OC)[C@@H](C)C(=O)N[C@@]1(C(N)=O)C[C@@H]1c1ccccc1)OC)N(C)C(=O)[C@@H](NC(=O)[C@H](C(C)C)N(C)CCCC(=O)O)C(C)C` [Example 17, N-(3-carboxypropyl)-N-methyl-L-valyl-N-[(3R,4S,5S)-1-{(2S)-2-[(1R,2R)-3-{[(1S,2R)-1-carbamoyl-2-phenylcyclopropyl]amino}-1-methoxy-2-methyl-3-oxopropyl]pyrrolidin-1-yl}-3-methoxy-5-methyl-1-oxoheptan-4-yl]-N-methyl-L-valinamide] showed a Papp B→A at 2 h in series [1] of 0.2 ×10⁻⁶ cm/s.

(Values after patent US8987209B2, “N-carboxyalkyl-auristatin and the use thereof” (Seattle Genetics, Inc., priority 2010, dated 2015).)
